Laboratory results from patent US4876284A, “1-alkyl-2-aminotetralin derivatives” (Per Arvid Emil Carlsson, priority 1981, dated 1989).

Legend:
[1] = system: postsynaptic DA receptors; test: Antagonism of the reserpine plus α-methyl-para-tyrosine-induced immobility (neuroleptic syndrome) in rats; motor activity
[2] = system: central DA-receptor (pre- and/or postsynaptic); test: Rat-brain in-vivo tyrosine hydroxylation: Dopa accumulation after NSD 1015 in reserpine-pretreated rats; conditions: reserpine-pretreated rats; for biochemical activity (Dopa accumulation), in words: inactive even at 45 μmol/kg
Method: The compounds under evaluation were tested biochemically for central DA-receptor (pre- and/or postsynaptic) stimulating activity. The concept of this biochemical screening method is that a DA-receptor agonist will stimulate the receptor and through regulatory feedback systems effect a decline in tyrosine hydroxylase activity and thus a subsequent reduction in the synthesis rate for DA in the presynaptic neuron. Dopa formation, as determined after in-vivo inhibition of the aromatic L-amino acid decarboxylase with NSD 1015 (3-hydroxybenzyl-hydrazine hydrochloride), is taken as an indirect measure of DA synthesis rate.
Rats (150-300 g) pretreated with reserpine were given the compounds under evaluation. Gross behavioural observations (changes in motility, stereotypies etc.) were made in order to evaluate possible postsynaptic dopamine receptor activity. subsequent administration of NSD 1015, decapitation, brain dissection [corpora striata, limbic fore-brain and rest of the hemispheral parts (cortex)]homogenization, centrifugation, ion-exchange chromatography and spectro-fluorimetric measurements (all as described in detail by Wikstrom et al., in J. Med. Chem. 21, 864-867, 1978 and references cited therein), gave the actual Dopa levels.
Several doses (n=4-6) were tested in order to obtain dose-response curves for each compound and brain area. The dose of a compound producing a half-maximal decrease in the Dopa level in the rat brain part was then estimated. These values (ED50) are presented in Table I. (Simultaneous determination of the 5-HTP levels was also performed utilizing the same paradigm.)
^b Rats pretreated with reserpine (10 mg/kg i.p.; 18 h) were given th
compounds under evaluation. Fortyfive minutes later they were injected
with NSD 1015 (100 mg/kg i.p.) and after a further 30 min they were
decapitated, the brains rapidly dissected and taken for determination of
the Dopa and 5HTP levels in different areas of the brain. The dose of a
compound producing a halfmaximal decrease (ED50) in the Dopa level i
the rat brain part was then estimated from doseresponse curves comprising
4-6 dose levels. (For further details see the text and references).

[3] = reserpine and α-methyl-para-tyrosine pretreated rats

`CCCN(CCC)[C@@H]1CCc2c(O)cccc2[C@H]1C` (relative stereo) [trans-1-CH35-OHDPAT, trans-1-methyl-5-hydroxy-2-(di-n-propylamino)tetralin] was tested. Which Motor activity ([1]; 10 mg/kg s.c., reserpine 10 mg/kg + α-methyl-para-tyrosine 250 mg/kg i.p., means ± s.e.m.) did it give?
The Motor activity was 406 ± 47 counts 0-60 min.

And the “motor response / postsynaptic DA-receptor stimulatory effects” value ([1]; comparative study, Table II, s.c.)?
Its value is “strong central postsynaptic DA-receptor stimulatory effects”.

And the “antagonism of the reserpine-induced syndrome / behaviour elicited” value [1, 3]?
Its value is “pronounced stereotyped and hyperactive behaviour”.

And the “postsynaptic DA-receptor stimulation” value [1, 3]?
Its value is “efficient postsynaptic DA-receptor stimulants”.

And the “Dopa-accumulation; ED50, Limbic” value ([2]; limbic forebrain, half-maximal decrease in Dopa level, s.c.)?
Its value is 0.66 μmol/kg s.c.

And the “Dopa-accumulation; ED50, Striatum” value ([2]; striatum, half-maximal decrease in Dopa level, s.c.)?
Its value is 0.73 μmol/kg s.c.

How did the “Dopa-accumulation; ED50, Limbic (class symbol)” value ([2]; limbic forebrain, s.c.) turn out when `CCCN(CCC)C1CCc2c(O)cccc2C1(C)C` (stereo not drawn) [1,1-di-CH35-OHDPAT, 1,1di-CH35-OH2-(di-n-propylamino) tetralin] was run?
The value was “I (Inactive. ED50 > 45 μmol/kg.)”.

What about the “biochemical activity (Dopa accumulation), in words” value [2] of the same compound?
The value was “completely inactive”.

What about the “Dopa-accumulation; ED50, Striatum (class symbol)” value ([2]; striatum, s.c.) of the same compound?
Its value is “I (Inactive. ED50 > 45 μmol/kg.)”.

What does the source list for `CCCNC1CCc2c(O)cccc2C1(C)C` (stereo not drawn) [1,1-di-CH35-OHPAT, 1,1di-CH35-OH2-(n-propylamino)tetralin]?
Dopa-accumulation; ED50, Limbic (class symbol) ([2]; limbic forebrain, s.c.): I (Inactive. ED50 > 45 μmol/kg.); biochemical activity (Dopa accumulation), in words [2]: completely inactive; Dopa-accumulation; ED50, Striatum (class symbol) ([2]; striatum, s.c.): I (Inactive. ED50 > 45 μmol/kg.)
